Source: the supplement of paper PMC13380429

How the values were obtained:
Settings in all cases: 72 h
[1] = test system: Caco-2; assay: cell viability relative to DMSO; higher = less toxic
[2] = test system: Calu-3; assay: as above
[3] = test system: HepG2; assay: as above
[4] = test system: U2OS; assay: as above
[5] = test system: Vero E6; assay: as above
[6] = test system: Caco-2; assay: relative viability EC50 (midpoint between 100% and the lowest measured viability); higher = less toxic
[7] = test system: Calu-3; assay: as above
[8] = test system: HepG2; assay: as above
[9] = test system: U2OS; assay: as above
[10] = test system: Vero E6; assay: as above
[11] = test system: Caco-2; assay: drug sensitivity score (DSS) for viability; higher = more toxic; extreme values may be limits of the assay
[12] = test system: Calu-3; assay: as above
[13] = test system: HepG2; assay: as above
[14] = test system: U2OS; assay: as above
[15] = test system: Vero E6; assay: as above

| Structure (SMILES) | cell viability ([1]; 1 nM) | cell viability ([1]; 10 nM) | cell viability ([1]; 100 nM) | cell viability ([1]; 1000 nM) | cell viability ([1]; 10000 nM) | cell viability ([2]; 1 nM) | cell viability ([2]; 10 nM) | cell viability ([2]; 100 nM) | cell viability ([2]; 1000 nM) | cell viability ([2]; 10000 nM) | cell viability ([3]; 1 nM) | cell viability ([3]; 10 nM) | cell viability ([3]; 100 nM) | cell viability ([3]; 1000 nM) | cell viability ([3]; 10000 nM) | cell viability ([4]; 1 nM) | cell viability ([4]; 10 nM) | cell viability ([4]; 100 nM) | cell viability ([4]; 1000 nM) | cell viability ([4]; 10000 nM) | cell viability ([5]; 1 nM) | cell viability ([5]; 10 nM) | cell viability ([5]; 100 nM) | cell viability ([5]; 1000 nM) | cell viability ([5]; 10000 nM) | relative viability EC50 [6] | relative viability EC50 [7] | relative viability EC50 [8] | relative viability EC50 [9] | relative viability EC50 [10] | drug sensitivity score [11] | drug sensitivity score [12] | drug sensitivity score [13] | drug sensitivity score [14] | drug sensitivity score [15] |
| --- | --- | --- | --- | --- | --- | --- | --- | --- | --- | --- | --- | --- | --- | --- | --- | --- | --- | --- | --- | --- | --- | --- | --- | --- | --- | --- | --- | --- | --- | --- | --- | --- | --- | --- | --- |
| O=S(=O)(O)c1ccc(O)cc1 [4-phenolsulfonic-acid] | 102% | 101% | 98.4% | 103% | 98.4% | 102% | 103% | 104% | 95.1% | 97.1% | 104% | 92.3% | 116% | 105% | 97.8% | 100% | 104% | 97% | 97.6% | 101% | 100% | 95.7% | 92.6% | 100% | 94.5% | > 10 µM | > 10 µM | > 10 µM | > 10 µM | > 10 µM | 0 | 0 | 0 | 0 | 0 |
| CC(C)c1cccc2c1OC(C(C)C)C(=S)N2CC(=O)O (centres undefined) [AD-5467] | 91.3% | 96.9% | 91.2% | 91.9% | 96.4% | 104% | 106% | 92% | 91.1% | 107% | 93.6% | 97.2% | 98.5% | 98% | 96.6% | 102% | 98.5% | 98.9% | 96.5% | 98% | 95.7% | 102% | 93.5% | 99.3% | 95.1% | > 10 µM | > 10 µM | > 10 µM | > 10 µM | > 10 µM | 0 | 0 | 0 | 0 | 0 |
| CC(C)Oc1ccc2c(=O)c3cc(C(=O)O)ccc3oc2c1 [AH6809] | 97.6% | 100% | 93.2% | 93.6% | 85.2% | 112% | 111% | 96.9% | 103% | 104% | 96.6% | 97.1% | 91.5% | 93.6% | 94.5% | 104% | 105% | 107% | 102% | 95% | 96.5% | 102% | 95.3% | 89.8% | 98.9% | > 10 µM | > 10 µM | > 10 µM | > 10 µM | > 10 µM | 0.3 | 0 | 0 | 0 | 0 |
| CN(CC[C@@H](Oc1ccc(-c2ccccc2)cc1)c1ccc(F)cc1)CC(=O)O [ALX-5407] | 105% | 98.9% | 102% | 94.8% | 95.6% | 103% | 85.9% | 98.6% | 98.3% | 104% | 102% | 108% | 92.7% | 95.7% | 96.7% | 98.3% | 96.6% | 99% | 93.8% | 98.7% | 101% | 99.1% | 97.7% | 100% | 96.4% | > 10 µM | > 10 µM | > 10 µM | > 10 µM | > 10 µM | 0 | 0 | 0 | 0 | 0 |
| Cc1cc(C(=O)NOCCO)c(Nc2ccc(I)cc2F)n(C)c1=O [AZD8330] | 86.1% | 83.3% | 70% | 62.1% | 66.3% | 78.8% | 69.5% | 44% | 29.3% | 25.7% | 78.2% | 34% | 24% | 20.1% | 18.4% | 93.1% | 94% | 86.2% | 37.3% | 28.3% | 89.5% | 72.1% | 52% | 47.7% | 49.2% | – | 0.0118 µM | 0.0026 µM | 0.265 µM | 0.0072 µM | 12 | 24.3 | 35 | 13.3 | 19.2 |
| O=C(O)c1cc(N2N=C(C(F)(F)F)/C(=C/c3ccc(-c4ccccc4)o3)C2=O)ccc1Cl [EN460] | 101% | 95.2% | 101% | 97.8% | 96.3% | 102% | 89.9% | 97.6% | 92.6% | 100% | 106% | 97.9% | 101% | 105% | 92.1% | 101% | 102% | 97.9% | 98.6% | 100% | – | – | – | – | – | > 10 µM | > 10 µM | > 10 µM | > 10 µM | – | 0 | 0 | 0 | 0 | – |
| O=C(c1ccc(F)cc1)C1CCN(CCn2c(=S)[nH]c3ccccc3c2=O)CC1 [altanserin] | 103% | 82.7% | 94.2% | 89% | 90.6% | 104% | 103% | 112% | 97.3% | 111% | 108% | 107% | 88.2% | 96% | 86.4% | 98.2% | 96.7% | 103% | 96.5% | 97.1% | – | – | – | – | – | > 10 µM | > 10 µM | > 10 µM | > 10 µM | – | 0.2 | 0 | 1.7 | 0 | – |
| c1ccc(CN(CC2=NCCN2)c2ccccc2)cc1 [antazoline] | 103% | 84.4% | 92.1% | 84% | 70.7% | 90.2% | 105% | 98.3% | 104% | 91.7% | 102% | 91.8% | 90.6% | 96.7% | 103% | 96.5% | 101% | 93.9% | 95% | 90.6% | 99.1% | 102% | 105% | 90.4% | 91.7% | – | > 10 µM | > 10 µM | > 10 µM | > 10 µM | 3.4 | 0 | 0 | 0 | 0 |
